The values below come from patent publication EP1388586A2, “Identification of broadly reactive DR restricted epitopes” (priority 1998, dated 1999).

Where two headings read alike, the source gives them in different places. Ends that are not written are not given here. Peptide text beside a SMILES is read from it. Bounds are passed on as bounds.

The target in test [1] is T1, DRB1*0401 (DR4w4) (Homo sapiens, UniProt P01903+P01911, A100K/A169T/F76Y/I96L/K127E/L162R/M171V/N62H/P40V/Q125Y/R42H/S133A/S149N/S66Y/V115G/V209L/W38E).
T1 construct: used as sources of human HLA class II molecules; endogenous in cells; host or cells: PREISS (EBV-transformed homozygous B cell line)
Description: Class II peptide-binding assay, DR4w4.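 Note: unlabeled test peptides compete with a radiolabeled probe peptide for binding to affinity-purified HLA-DR, with DR amount titrated to capture a small fraction of label, IC50 approximating Kd.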

The target in test [2] is T2, DRB1*0101 (DR1) (Homo sapiens, UniProt P01903+P01911, A100R/D57E/F55L/F60I/F76Y/I96L/L162R/M171V/P40L/Q125E/R42F/V115G/Y59C).
T2 construct: used as sources of human HLA class II molecules; endogenous in cells; host or cells: LG2 (EBV-transformed homozygous B cell line)
Description: Class II peptide-binding assay, DR1.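 Note: competition assay: unlabeled test peptides inhibit binding of a radiolabeled probe peptide to purified DR, with half-maximal inhibition taken as an approximate dissociation constant Kd.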

Test [3] concerns the target DRB1*0701 (DR7) (Homo sapiens, UniProt P01903+P01911, A100R/A102G/A103Q/D57E/D86V/E43K/F76Y/K127E/L162R/M171V/P40G/Q125H/Q99D/R33Q/R42Y/R54Q/S133A/S66F/T210M/V115G/Y107V/Y59L/Y89S). Description: Class II peptide-binding assay, DR7.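 Note: unlabeled peptides compete with an iodinated probe peptide for binding to affinity-purified HLA-DR at neutral pH, DR amount titered to bind a small tracer fraction, IC50 approximating Kd.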
Test [4] has as its target T3, DRB5*0101 (DR2w2a) (Homo sapiens, UniProt P01903+Q30154).
T3 construct: used as sources of human HLA class II molecules; endogenous in cells; host or cells: GM3107 (EBV-transformed homozygous B cell line)
The experiment in a line: Class II peptide-binding assay, DR2w2a (DR2w2B2).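 Note: competitive binding assay: unlabeled peptide inhibiting binding of a radiolabeled probe peptide to purified DR molecules at pH 7.0, IC50 approximating Kd, lower means stronger binding.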

Test [5] addresses T4, DRB1*0301 (DR3w17) (Homo sapiens, UniProt P01903+P01911, A100K/A102G/A103R/A169T/F55Y/I96L/K41T/L162R/M171V/P40S/Q125H/Q178H/Q39Y/R42S/S66N/T106N/T262R/W38E/Y61H).
T4 construct: used as sources of human HLA class II molecules; endogenous in cells; host or cells: MAT (EBV-transformed homozygous B cell line)
Description: Class II peptide-binding assay, DR3 (pH 4.5).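 Note: unlabeled peptide competing with a radiolabeled probe peptide for binding to affinity-purified HLA-DR3, IC50 regarded as an approximation of Kd.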
Description: Class II peptide-binding assays. […] These assays were chosen as to be representative of the most common DR alleles.
In appropriate stoichiometric conditions, the IC50 of an unlabeled test peptide to the purified DR is a reasonable approximation of the affinity of interaction (Kd). Peptides were tested in two to four completely independent experiments. […] Final detergent concentration in the incubation mixture was 0.05% Nonidet P-40. Assays were performed at pH 7.0 with the exception of DR3, which was performed at pH 4.5, and DRw53, which was performed at pH 5.0.
All subsequent inhibition and direct binding assays were the performed using these class II concentrations.

In test [6] the target is T5, DRB1*1101 (DR5w11) (Homo sapiens, UniProt P01903+P01911, A100R/A169T/A87E/I96F/K41T/L162R/M171V/P40S/Q125H/Q178H/Q39Y/Q99D/R42S/S66Y/T262R/V115G/W38E).
T5 construct: used as sources of human HLA class II molecules; endogenous in cells; host or cells: SWEIG (EBV-transformed homozygous B cell line)
The experiment in a line: Class II peptide-binding assay, DR5w11.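 Note: competition by unlabeled test peptide against iodinated probe peptide binding to affinity-purified HLA-DR, class II amount titrated beforehand, half-maximal inhibitory concentration read as approximate Kd.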 As to conditions: read-out: In IC50 Format DR5w11; Table VIII.

[7] abbreviates: read-out: In IC50 Format DR3, Table VIII.
The mark [8] stands for this setting: read-out: In IC50 Format DR3 nM, Table VIII, values in parentheses read as lower bounds.
Setting [9] is: Table VIII, page 2, pH 4.5, read-out: In IC50 Format DR3.

T4 sequence (P01903 26-254, other chains not shown): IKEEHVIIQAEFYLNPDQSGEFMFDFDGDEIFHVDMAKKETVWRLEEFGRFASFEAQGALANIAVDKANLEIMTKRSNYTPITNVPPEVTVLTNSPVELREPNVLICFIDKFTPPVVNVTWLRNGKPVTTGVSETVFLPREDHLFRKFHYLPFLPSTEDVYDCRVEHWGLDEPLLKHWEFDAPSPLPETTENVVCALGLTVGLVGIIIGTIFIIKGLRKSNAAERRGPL
T5 sequence (P01903 26-254, other chains not shown): as above

As to `CC[C@H](C)[C@H](NC(=O)[C@H](CO)NC(=O)[C@H](CCC(=O)O)NC(=O)[C@H](CC(C)C)NC(=O)[C@H](C)NC(=O)[C@@H](N)CC(=O)O)C(=O)N[C@@H](CCSC)C(=O)N[C@H](C(=O)N[C@H](C(=O)N[C@@H](CCCCN)C(=O)N[C@@H](CO)C(=O)N[C@H](C(=O)N[C@@H](CO)C(=O)N[C@@H](Cc1ccccc1)C(=O)N[C@@H](CCCNC(=N)N)C(=O)O)C(C)C)[C@@H](C)O)[C@@H](C)O` [Peptide 774.00], the IC50 (as a rule, the concentration at which inhibition is half-maximal) amounted to 0.11 µM in test [1] (purified HLA DR4w4, read-out: DR4w4 nM (In IC50 Format)); 0.385 µM in test [2] (purified HLA DR1, read-out: DR1 nM (In IC50 Format)); 0.0841 µM in test [3] (purified HLA DR7, read-out: DR7 nM (In IC50 Format)); 20 µM in test [4] (purified HLA DR2w2β2, read-out: DR2w2B2 nM (In IC50 Format)); 33.3 µM in test [5] (purified HLA DR3, read-out: DR3 nM (In IC50 Format)).
As to `CC[C@H](C)[C@H](NC(=O)[C@H](CC(N)=O)NC(=O)[C@H](CCCCN)NC(=O)[C@H](Cc1ccccc1)NC(=O)[C@H](Cc1ccccc1)NC(=O)[C@H](Cc1c[nH]cn1)NC(=O)[C@@H](NC(=O)[C@@H](NC(=O)[C@@H]1CCCN1C(=O)[C@H](CC(N)=O)NC(=O)[C@H](CCC(=O)O)NC(=O)[C@H](CC(=O)O)NC(=O)[C@H](CCC(N)=O)NC(=O)[C@@H](NC(=O)[C@H](CCCNC(=N)N)NC(=O)CN)[C@@H](C)O)C(C)C)C(C)C)C(=O)N[C@H](C(=O)N[C@H](C(=O)N1CCC[C@H]1C(=O)N[C@@H](CCCNC(=N)N)C(=O)O)[C@@H](C)O)C(C)C` [Peptide 507.02], the IC50 came out at 0.0058 µM in test [1] (read-out: In IC50 Format DR4w4, Table VIII); 0.0172 µM in test [2] (read-out: In IC50 Format DR1, Table VIII); 1 µM in test [3] (read-out: In IC50 Format DR7, Table VIII); 0.25 µM in test [4] (read-out: In IC50 Format DR2w2β2, Table VIII); 0.133 µM in test [6]; 60 µM in test [5] (setting [7]).
In the case of `CSCC[C@H](NC(=O)[C@H](CC(=O)O)NC(=O)[C@H](CC(C)C)NC(=O)[C@H](Cc1c[nH]cn1)NC(=O)[C@@H](NC(=O)[C@H](CCC(=O)O)NC(=O)[C@@H]1CCCN1C(=O)[C@H](CO)NC(=O)[C@H](C)NC(=O)[C@@H]1CCCN1C(=O)[C@H](CC(C)C)NC(=O)[C@@H](N)CCCNC(=N)N)[C@@H](C)O)C(=O)N[C@@H](CC(C)C)C(=O)N[C@@H](CCCNC(=N)N)C(=O)N[C@@H](Cc1c[nH]cn1)C(=O)O` [Peptide 39.0338], the IC50 in test [5] (setting [8]) was above 111 µM.
With `CC[C@H](C)[C@H](NC(=O)[C@@H](NC(=O)[C@H](Cc1c[nH]cn1)NC(=O)[C@@H](N)CC(C)C)C(C)C)C(=O)N[C@@H](CCCCN)C(=O)N[C@@H](CO)C(=O)N[C@@H](CC(=O)O)C(=O)N[C@@H](CC(C)C)C(=O)N[C@H](C(=O)N[C@@H](CC(N)=O)C(=O)N[C@@H](CCC(=O)O)C(=O)N[C@@H](CCC(=O)O)C(=O)N[C@@H](C)C(=O)N[C@H](C(=O)NCC(=O)O)[C@@H](C)O)C(C)C` [Peptide 39.0314], the IC50 in test [5] (setting [9]) came out at 2.31 µM.
On to `CC(C)C[C@H](NC(=O)[C@H](CCC(N)=O)NC(=O)[C@@H](NC(=O)[C@@H]1CCCN1)C(C)C)C(=O)N[C@@H](Cc1c[nH]c2ccccc12)C(=O)N[C@H](C(=O)N[C@@H](CC(=O)O)C(=O)N[C@@H](CO)C(=O)N[C@H](C(=O)N1CCC[C@H]1C(=O)N1CCC[C@H]1C(=O)N1CCC[C@H]1C(=O)NCC(=O)N[C@H](C(=O)N[C@@H](CCCNC(=N)N)C(=O)O)[C@@H](C)O)[C@@H](C)O)C(C)C` [Peptide 39.0413], for which the IC50 in test [5] (setting [7]) was 10 µM.
In the case of `CC[C@H](C)[C@H](N)C(=O)N[C@@H](Cc1c[nH]c2ccccc12)C(=O)N[C@@H](CCCCN)C(=O)N[C@@H](Cc1ccccc1)C(=O)N1CCC[C@H]1C(=O)N[C@@H](CC(=O)O)C(=O)N[C@@H](CCC(=O)O)C(=O)N[C@@H](CCC(=O)O)C(=O)NCC(=O)N[C@@H](C)C(=O)N[C@@H](CS)C(=O)N[C@@H](CCC(N)=O)C(=O)N1CCC[C@H]1C(=O)N[C@@H](CS)C(=O)N1CCC[C@H]1C(=O)O` [Peptide 39.0358] (H-IWKFPDEEGACQPCP-OH), the IC50 in test [5] (setting [8]) is above 111 µM.
The same measure, in the same setting: the same measure for `CC(C)C[C@H](NC(=O)[C@@H]1CCCN1C(=O)CNC(=O)[C@@H](N)CCCCN)C(=O)N1CCC[C@H]1C(=O)N[C@H](C(=O)N[C@@H](CC(=O)O)C(=O)N[C@@H](CS)C(=O)N[C@@H](CS)C(=O)N[C@@H](Cc1c[nH]cn1)C(=O)N[C@@H](CCC(=O)O)C(=O)N[C@@H](CCC(N)=O)C(=O)N[C@@H](CS)C(=O)N[C@@H](C)C(=O)N[C@@H](C)C(=O)O)[C@@H](C)O` [Peptide 39.0344]: above 111 µM.
On to `C[C@H](NC(=O)[C@H](CCC(=O)O)NC(=O)[C@H](CC(=O)O)NC(=O)[C@@H]1CCCN1C(=O)CNC(=O)[C@@H]1CCCN1C(=O)[C@H](CC(=O)O)NC(=O)[C@H](CCC(=O)O)NC(=O)[C@@H](NC(=O)[C@H](Cc1ccccc1)NC(=O)[C@H](Cc1c[nH]c2ccccc12)NC(=O)[C@H](CCC(N)=O)NC(=O)[C@@H](N)CCC(=O)O)[C@@H](C)O)C(=O)N1CCC[C@H]1C(=O)N[C@@H](CCCNC(=N)N)C(=O)O` [Peptide 39.0412], for which the IC50 in test [5] (setting [7]) was above 120 µM.
Regarding `CC[C@H](C)[C@H](NC(=O)[C@H](CC(N)=O)NC(=O)[C@@H](N)CCC(N)=O)C(=O)N[C@H](C(=O)N[C@@H](CCC(N)=O)C(=O)N[C@@H](CC(N)=O)C(=O)N[C@@H](CC(=O)O)C(=O)N[C@H](C(=O)NCC(=O)N[C@@H](Cc1ccccc1)C(=O)N[C@@H](Cc1ccc(O)cc1)C(=O)N[C@H](C(=O)N[C@@H](CC(C)C)C(=O)N[C@@H](Cc1c[nH]cn1)C(=O)N[C@H](C(=O)O)C(C)C)[C@@H](C)O)[C@@H](C)O)[C@@H](C)CC` [Peptide 39.0313], the IC50 in test [5] (setting [9]) came out at 0.938 µM.
Turning to ETEYHADGGKVPIKW [Peptide 39.0367], the IC50 in test [5] (setting [8]) was above 111 µM.
On the same count and under the same terms, the same measure for `CSCC[C@H](NC(=O)[C@H](CC(=O)O)NC(=O)[C@H](CC(=O)O)NC(=O)[C@H](CC(=O)O)NC(=O)[C@H](CCC(=O)O)NC(=O)[C@H](CC(C)C)NC(=O)[C@H](CC(C)C)NC(=O)[C@H](CO)NC(=O)[C@@H](N)CCCNC(=N)N)C(=O)NCC(=O)N[C@@H](CC(=O)O)C(=O)N[C@@H](CC(C)C)C(=O)N[C@H](C(=O)N[C@@H](CC(=O)O)C(=O)N[C@@H](C)C(=O)O)C(C)C` [Peptide 39.0374]: 37.5 µM.
As to `CC[C@H](C)[C@H](NC(=O)[C@H](CC(=O)O)NC(=O)[C@H](CC(=O)O)NC(=O)[C@@H]1CCCN1C(=O)[C@H](CO)NC(=O)[C@H](CC(C)C)NC(=O)[C@H](CCSC)NC(=O)[C@H](CC(C)C)NC(=O)[C@@H](N)CC(=O)O)C(=O)N[C@@H](CCC(=O)O)C(=O)N[C@@H](CCC(N)=O)C(=O)N[C@@H](Cc1c[nH]c2ccccc12)C(=O)N[C@@H](Cc1ccccc1)C(=O)N[C@H](C(=O)N[C@@H](CCC(=O)O)C(=O)O)[C@@H](C)O` [Peptide 39.0411], the IC50 in test [5] (setting [7]) came to 20 µM.
`CSCC[C@H](NC(=O)CNC(=O)[C@H](CC(C)C)NC(=O)CNC(=O)[C@H](Cc1ccc(O)cc1)NC(=O)[C@@H](N)CS)C(=O)N[C@@H](CCC(=O)O)C(=O)N[C@@H](Cc1c[nH]cn1)C(=O)N[C@@H](CC(C)C)C(=O)N[C@@H](CCCNC(=N)N)C(=O)N[C@@H](CCC(=O)O)C(=O)N[C@H](C(=O)N[C@@H](CCCNC(=N)N)C(=O)N[C@@H](C)C(=O)N[C@H](C(=O)O)C(C)C)C(C)C` [Peptide 39.0348]: in test [5] (setting [8]), the IC50 is 36.1 µM.
On the same count and under the same terms, the same measure for `CC(C)C[C@H](NC(=O)[C@@H](NC(=O)[C@H](CCC(=O)O)NC(=O)[C@H](Cc1ccccc1)NC(=O)[C@@H](NC(=O)[C@H](CCC(N)=O)NC(=O)[C@H](CC(C)C)NC(=O)[C@H](CCC(N)=O)NC(=O)[C@H](CCC(=O)O)NC(=O)[C@@H]1CCCN1C(=O)[C@H](CCC(N)=O)NC(=O)[C@H](CC(C)C)NC(=O)[C@@H]1CCCN1C(=O)[C@H](C)NC(=O)[C@@H](N)[C@@H](C)O)C(C)C)[C@@H](C)O)C(=O)O` [Peptide 39.0351]: 130 µM.
